In the first experiment the test system is HBsAg. Description: HBsAg assay. In kind it is cell-based, hepatitis B virus. The note with it: Hepatitis B virus, HepG2.2.15, 144 h, read-out: sAg EC50, μM, HepG2.2.15 cells, day 6. The protocol: Inhibition of HBsAg was determined in HepG2.2.15 cells. Cells were maintained in culture medium containing 10% fetal calf serum, […], Glutamine, penicillin/streptomycin. Cells were seeded in 96-well collagen-coated plate at a density of 30,000 cells/well. Serially diluted compounds were added to cells next day at the final DMSO concentration of 0.5%. Cells were incubated with compounds for 2-3 days, after which medium was removed. Fresh medium containing compounds was added to cells for additional 3-4 days. At day 6 after exposure of compounds, supernatant was collected, the HBsAg immunoassay (microplate-based chemiluminescence immunoassay kits, CLIA, Autobio Diagnosics Co., Zhengzhou, China, Catalog # CL0310-2) was used to determine the level of HBsAg according to manufactory instruction. Dose-response curves were generated and the EC50 value (effective concentrations that achieved 50% inhibitory effect) were determined using XLfit software. In addition, cells were seeded at a density of 5,000 cells/well for determination of cell viability in the presence and absence of compounds by using CellTiter-Glo reagent (Promega). Tables 1-3 show EC50 values obtained by the HBsAg assay for selected compounds.
With `COCCCOc1cc2c(nc1Cl)-c1cc(=O)c(C(=O)O)cn1C1(COC1)CO2` [Example 71, 2-Chloro-3-(3-methoxypropoxy)-1-oxo-6H,11H-spiro[dipyrido[1,2-d:2′,3′-f][1,4]oxazepine-7,3′-oxetane]-10-carboxylic acid], the half-maximal effective concentration (EC50) was determined as 30 µM.
Take `COCCCOc1cc2c(nc1Cl)-c1cc(=O)c(C(=O)O)cn1C1(CO2)CC(C)(C)C1` [Example 72, 2′-Chloro-3′-(3-methoxypropoxy)-3,3-dimethyl-11′-oxo-6′H,11′H-spiro[cyclobutane-1,7′-dipyrido[1,2-d:2′,3′-f][1,4]oxazepine]-10′-carboxylic acid]: the EC50 is 0.18 µM.
On to `COCCCOc1cc2c(cc1Cl)-c1cc(=O)c(I)cn1C(C(C)(C)C)C2` (stereo not shown) [Example 131, 6-Tert-butyl-10-chloro-3-iodo-9-(3-methoxypropoxy)-6H,7H-pyrido[2,1-a]isoquinolin-2-one], for which the EC50 was found to be 2.4 µM.
On to `COCCCOc1cc2c(nc1OC)-c1cc(=O)c(-c3nc(-c4ccccc4)no3)cn1[C@H](C(C)C)C2` [Example 112, (S)-6-Isopropyl-2-methoxy-3-(3-methoxypropoxy)-9-(3-phenyl-1,2,4-oxadiazol-5-yl)-5,6-dihydro-10H-pyrido[1,2-h][1,7]naphthyridin-10-one], for which the EC50 worked out at 0.87 µM.
As to `COCCCOc1cc2c(cc1Cl)-c1cc(=O)c(NC(=O)OC(C)(C)C)cn1C(C(C)(C)C)C2` (stereo not shown) [Example 119, Tert-butyl N-[6-tert-butyl-10-chloro-9-(3-methoxypropoxy)-2-oxo-6H,7H-pyrido[2,1-a]isoquinolin-3-yl]carbamate], the EC50 came to 0.14 µM.
As to `COc1cc2c(cc1Cl)-c1cc3noc(=O)c-3cn1C(C(C)C)CO2` (stereo not shown) [Example 151, 2-Chloro-7-isopropyl-3-methoxy-6,7-dihydro-10H-benzo[f]isoxazolo[3′,4′:4,5]pyrido[1,2-d][1,4]oxazepin-10-one], the EC50 was 13 µM.
For `CC(C)[C@@H]1COc2cc(OCCCN3CCOCC3)c(Cl)cc2-c2cc(=O)c(C(=O)O)cn21` [Example 40, (R)-2-Chloro-7-isopropyl-3-(3-morpholinopropoxy)-11-oxo-6,7-dihydro-11H-benzo[f]pyrido[1,2-d][1,4]oxazepine-10-carboxylic acid], the EC50 is 0.14 µM.
On to `COc1cc2c(cc1Cl)-c1cc(=O)c(C(=O)O)cn1[C@H](CC(C)C)CO2` (single isomer, unassigned) [Example 7], for which the EC50 turned out to be 0.61 µM.
On to `CC(C)COc1cc2c(nc1C1CC1)-c1cc(=O)c(C(=O)O)cn1[C@H](C(C)C)CO2` [Example 76, (R)-2-Cyclopropyl-3-isobutoxy-7-isopropyl-11-oxo-6,7-dihydro-11H-dipyrido[1,2-d:2′,3′-f][1,4]oxazepine-10-carboxylic acid], for which the EC50 amounted to 0.86 µM.
Take `COc1cc2c(cc1Cl)-c1cc(=O)c(C(=O)O)cn1[C@@H](CC(C)C)CO2` (single isomer, unassigned) [Example 6]: the EC50 stood at 3.8 µM.
Same read-out and setting: in the case of `COc1ccc2c(c1)OCC(C(C)C)n1cc(C(=O)O)c(=O)cc1-2` (stereo not shown) [Example 16, 7-Isopropyl-3-methoxy-11-oxo-6,7-dihydro-11H-benzo[f]pyrido[1,2-d][1,4]oxazepine-10-carboxylic acid] it was 3.5 µM; in that of `COCCCOc1cc2c(cc1Cl)-c1cc(=O)c(OC)cn1[C@H](C(C)C)CO2` [Example 139, (R)-2-Chloro-7-isopropyl-10-methoxy-3-(3-methoxypropoxy)-6,7-dihydro-11H-benzo[f]pyrido[1,2-d][1,4]oxazepin-11-one], 14 µM.
Turning to `COCCCOc1cc2c(nc1Cl)-c1cc(=O)c(C(=O)O)cn1[C@H](C(C)(C)C)CO2` [Example 66, (R)-7-(Tert-butyl)-2-chloro-3-(3-methoxypropoxy)-11-oxo-6,7-dihydro-11H-dipyrido[1,2-d:2′,3′-f][1,4]oxazepine-10-carboxylic acid], the EC50 is 0.002 µM.
On to `COCCCOc1cc2c(nc1Cl)-c1cc(=O)c(C(=O)O)cn1C1(CO2)CC(C)C1` (stereo not shown) [Example 73, 2′-Chloro-3′-(3-methoxypropoxy)-3-methyl-11′-oxo-6′H,11′H-spiro[cyclobutane-1,7′-dipyrido[1,2-d:2′,3′-f][1,4]oxazepine]-10′-carboxylic acid], for which the concentration giving a half-maximal response (EC50) was 0.26 µM.
Take `COc1ccc2c(c1)OC[C@@H](C(C)C)n1cc(C(=O)O)c(=O)cc1-2` [Example 17, (R)-7-Isopropyl-3-methoxy-11-oxo-6,7-dihydro-11H-benzo[f]pyrido[1,2-d][1,4]oxazepine-10-carboxylic acid]: the EC50 is 0.88 µM.
On the same count and under the same terms, in the case of `COCCCOc1cc2c(nc1OC)-c1cc(=NN)c(C(=O)NN)cn1[C@H](C(C)C)C2` [Example 152, (6S,10)-10-Hydrazinylidene-6-isopropyl-2-methoxy-3-(3-methoxypropoxy)-5H,6H-pyrido[1,2-h]1,7-naphthyridine-9-carbohydrazide] it was 0.03 µM.
In the case of `COCCCOc1cc2c(cc1C1CC1)-c1cc(=O)c(C(=O)O)cn1[C@H](C(C)C)CO2` [Example 45, (R)-2-Cyclopropyl-7-isopropyl-3-(3-methoxypropoxy)-11-oxo-6,7-dihydro-11H-benzo[f]pyrido[1,2-d][1,4]oxazepine-10-carboxylic acid], the EC50 amounted to 0.006 µM.
`COCCCOc1cc2c(nc1OC)-c1cc(=O)c(C(=O)NNC(C)=O)cn1[C@H](C(C)C)C2` [Example 154, (6S)—N′-Acetyl-6-isopropyl-2-methoxy-3-(3-methoxypropoxy)-10-oxo-5H,6H-pyrido[1,2-h]1,7-naphthyridine-9-carbohydrazide]: the EC50 came to 0.029 µM.
Consider `COCCCOc1cc2c(nc1OC)-c1cc(=O)c(C(C)=O)cn1C(C(C)C)C2` (stereo not shown) [Example 142, 9-Acetyl-6-isopropyl-2-methoxy-3-(3-methoxypropoxy)-5,6-dihydro-10H-pyrido[1,2-h][1,7]naphthyridin-10-one], for which the EC50 turned out to be 0.62 µM.
On to `COc1cc2c(nc1Cl)-c1cc(=O)c(C(=O)O)cn1[C@H](C(C)C)CO2` [Example 75, (R)-2-Chloro-7-isopropyl-3-methoxy-11-oxo-6,7-dihydro-11H-dipyrido[1,2-d:2′,3′-f][1,4]oxazepine-10-carboxylic acid], for which the EC50 is 0.026 µM.
For the compound `COc1cc2c(cc1Cl)-c1cc(=O)c(C(=O)O)cn1C1CCCC1O2` (stereo not shown) [Example 14, 12-Chloro-11-methoxy-2-oxo-5a,7,8,8a-tetrahydro-2H,6H-benzo[f]cyclopenta[b]pyrido[1,2-d][1,4]oxazepine-3-carboxylic acid], the EC50 was 0.56 µM.
On the same count and under the same terms, the value for `CCOC(=O)c1cn2c(cc1=O)-c1nc(OC)ccc1[C@H]2C(C)C` [Example 173, (R)-ethyl-5-isopropyl-2-methoxy-9-oxo-5,9-dihydropyrido[2,3-a]indolizine-8-carboxylate] was 8.6 µM.
Consider `CC(C)[C@@H]1COc2cc(OCCCO)c(Cl)cc2-c2cc(=O)c(C(=O)O)cn21` [Example 36, (R)-2-Chloro-3-(3-hydroxypropoxy)-7-isopropyl-11-oxo-6,7-dihydro-11H-benzo[f]pyrido[1,2-d][1,4]oxazepine-10-carboxylic acid], for which the EC50 is 0.019 µM.
Still for that read-out and setting: in the case of `COCCCOc1cc2c(cc1Cl)-c1cc(=O)c(NC(C)=O)cn1C(C(C)(C)C)C2` (stereo not shown) [Example 121, N-[6-Tert-butyl-10-chloro-9-(3-methoxypropoxy)-2-oxo-6H,7H-pyrido[2,1-a]isoquinolin-3-yl]acetamide] it was 8.6 µM; in that of `COCCCOc1cc2c(nc1OC)-c1cc(=O)c(-c3nnn[nH]3)cn1[C@H](C(C)C)C2` [Example 115, (S)-6-Isopropyl-2-methoxy-3-(3-methoxypropoxy)-9-(1H-tetrazol-5-yl)-5,6-dihydro-10H-pyrido[1,2-h][1,7]naphthyridin-10-one], 0.09 µM; in that of `CC(C)(C)C1Cc2cc3c(cc2-c2cc(=O)c(C(=O)O)cn21)OCCCO3` (stereo not shown) [Example 90, 6-(Tert-butyl)-2-oxo-6,7,11,12-tetrahydro-2H,10H-[1,4]dioxepino[2,3-g]pyrido[2,1-a]isoquinoline-3-carboxylic acid], 0.095 µM.
Same read-out and setting: the value for `COc1cc2c(cc1Cl)-c1cc(=O)c(C(=O)O)cn1C1CCC1O2` (stereo not shown) [Example 13, 11-Chloro-10-methoxy-2-oxo-5a,6,7,7a-tetrahydro-2H-benzo[f]cyclobuta[b]pyrido[1,2-d][1,4]oxazepine-3-carboxylic acid] was 1.8 µM; that for `COCCCOc1cc2c(nc1OC)-c1cc(=O)c(C#N)cn1[C@H](C(C)C)C2` [Example 113, (S)-6-Isopropyl-2-methoxy-3-(3-methoxypropoxy)-10-oxo-5,10-dihydro-6H-pyrido[1,2-h][1,7]naphthyridine-9-carbonitrile] was 1 µM; that for `CC(C)C1Cc2sccc2-c2cc(=O)c(C(=O)O)cn21` (stereo not shown) [Example 84, 5-Isopropyl-9-oxo-4,9-dihydro-5H-thieno[3,2-a]quinolizine-8-carboxylic acid] was 3.2 µM.

Staying with this experiment, now noted: read-out: sAg EC50; HepG2.2.15 cells, day 6.
On to `COc1cc2c(nc1OC)-c1cc(=O)c(C(=O)O)cn1C(C(C)C)C2` (single isomer, unassigned) [Example 25, 6-Isopropyl-2,3-dimethoxy-10-oxo-5,10-dihydro-6H-pyrido[1,2-h][1,7]naphthyridine-9-carboxylic acid], for which the EC50 is 0.007 µM.
Consider `CC(C)(C)C1Cc2cc3c(cc2-c2cc(=O)c(C(=O)O)cn21)OCCCO3` (single isomer, unassigned) [Example 91, 6-(Tert-butyl)-2-oxo-6,7,11,12-tetrahydro-2H,10H-[1,4]dioxepino[2,3-g]pyrido[2,1-a]isoquinoline-3-carboxylic acid], for which the EC50 turned out to be 0.94 µM.

Source of the values: patent US11013726B2 (Arbutus Biopharma Corporation, priority 2016, dated 2021).
